Experiments:
Format in all cases: in vivo
Parameters in all cases: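 grade 0 to 5 of growth suppression where 5 is 90% or more and 0 below 10%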
[1] = tested on: Echinochloa oryzicola Vasing; assay: Herbicidal effects in paddy field soil treatment (Test Example 1); details: paddy field soil treatment; 1000 g of the active ingredient per hectare; wettable powder added dropwise on water surface; 21st day after treatment
Summary of the method: (§1)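 Paddy soil pre-emergence test: seeds sown, flooded 3 cm; next day wettable powder in water applied dropwise to water surface, 1000 g a.i./ha; greenhouse; effect rated visually on scale at 21 d post-treatment.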

[2] = tested on: Monochoria vaginalis (Burm. f.) Presl var. plantaginea (Roxb.) Solms-Laub.; assay: as above; details: paddy field soil treatment; 1000 g of the active ingredient per hectare; wettable powder added dropwise on water surface; 21st day after treatment
Summary of the method: as §1

[3] = tested on: Scirpus juncoides Roxb. var. ohwianus. T. Koyama; assay: as above; details: paddy field soil treatment; 1000 g of the active ingredient per hectare; wettable powder added dropwise on water surface; 21st day after treatment
Summary of the method: as §1

[4] = tested on: Echinochloa crus-galli (L.) P. Beauv. var. crus-galli; assay: Herbicidal effects in upland field foliar treatment (Test Example 3); details: 1000 g of the active ingredient per hectare, 14th day after the treatment, wettable powder, criteria of Table 138
Summary of the method: (§2)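 Greenhouse pot test, upland soil; 2-wk-old plants sprayed from above with water-diluted wettable powder (1000 L/ha spray volume, 1000 g a.i./ha). Regrown in greenhouse; visual herbicidal score on day 14 post-treatment.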

[5] = tested on: Amaranthus viridis L.; assay: as above; details: 1000 g of the active ingredient per hectare, 14th day after the treatment, wettable powder, criteria of Table 138
Summary of the method: as §2

[6] = tested on: Abutilon theophrasti medicus; assay: as above; details: 1000 g of the active ingredient per hectare, 14th day after the treatment, wettable powder, criteria of Table 138
Summary of the method: as §2

[7] = tested on: Amaranthus viridis L.; assay: Herbicidal effects in upland field soil treatment (Test Example 2); details: 1000 g active ingredient per hectare, 21st day after treatment, criteria of Table 138
Summary of the method: (§3)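 Seeds sown in upland soil and covered; surface sprayed with water-diluted wettable powder, 1000 g a.i./ha, spray volume 1000 L/ha. Greenhouse growth, visual herbicidal rating at day 21.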

[8] = tested on: Abutilon theophrasti medicus; assay: as above; details: 1000 g active ingredient per hectare, 21st day after treatment, criteria of Table 138
Summary of the method: as §3

Row | SMILES | Herbicidal effects index, Echinochloa oryzicola Vasing [1] | Herbicidal effects index, Monochoria vaginalis (Burm. f.) Presl var. plantaginea (Roxb.) Solms-Laub. [2] | Herbicidal effects index, Scirpus juncoides Roxb. var. ohwianus. T. Koyama [3] | herbicidal effects on Echinochloa crus-galli (L.) P. Beauv. var. crus-galli [4] | herbicidal effects on Amaranthus viridis L. [5] | herbicidal effects on Abutilon theophrasti medicus [6] | herbicidal effect (index) on Amaranthus viridis L. [7] | herbicidal effect (index) on Abutilon theophrasti medicus [8]
1 | CC1(C)C(=O)C(C(=O)c2nc3ccccc3n(-c3ccc(Cl)cc3)c2=O)=C(O)C(C)(C)C1=O [II-15] | 5 | 5 | 5 | 5 | 5 | 5 | 5 | 5
2 | Cc1cccc(-n2c(=O)c(C(=O)C3=C(O)CCCC3=O)nc3ccccc32)c1 [II-20] | 5 | 5 | 5 | 5 | 5 | 5 | 5 | 5
3 | Cc1ccc(-n2c(=O)c(C(=O)C3=C(O)CCCC3=O)nc3ccccc32)cc1 [II-21] | 5 | 5 | 5 | 5 | 5 | 5 | 5 | 5
4 | CCc1cccc(-n2c(=O)c(C(=O)C3=C(O)CCCC3=O)nc3ccccc32)c1 [II-23] | 5 | 5 | 5 | 5 | 5 | 5 | 5 | 5
5 | CCc1ccc(-n2c(=O)c(C(=O)C3=C(O)CCCC3=O)nc3ccccc32)cc1 [II-24] | 5 | 5 | 5 | 5 | 5 | 4 | 5 | 5
6 | O=C1CCCC(O)=C1C(=O)c1nc2ccccc2n(-c2ccc(C3CC3)cc2)c1=O [II-33] | 5 | 5 | 5 | 5 | 5 | 5 | 5 | 4
7 | O=C1CCCC(O)=C1C(=O)c1nc2ccccc2n(-c2cccc(C(F)(F)F)c2)c1=O [II-39] | 5 | 5 | 5 | 5 | 5 | 5 | 5 | 5
8 | O=C1CCCC(O)=C1C(=O)c1nc2ccccc2n(-c2ccc(C(F)(F)F)cc2)c1=O [II-44] | 5 | 5 | 5 | 5 | 5 | 5 | 5 | 5
9 | COc1ccccc1-n1c(=O)c(C(=O)C2=C(O)CCCC2=O)nc2ccccc21 [II-52] | 5 | 5 | 5 | 5 | 5 | 5 | 5 | 5
10 | COc1cccc(-n2c(=O)c(C(=O)C3=C(O)CCCC3=O)nc3ccccc32)c1 [II-57] | 5 | 5 | 5 | 5 | 5 | 5 | 5 | 5
11 | COc1ccc(-n2c(=O)c(C(=O)C3=C(O)CCCC3=O)nc3ccccc32)cc1 [II-62] | 5 | 5 | 5 | 4 | 5 | 5 | 5 | 5
12 | COc1ccc(-n2c(=O)c(C(=O)C3=C(O)C(C)(C)CCC3=O)nc3ccccc32)cc1 [II-63] | 5 | 5 | 5 | 5 | 5 | 4 | 5 | 5
13 | COc1ccc(-n2c(=O)c(C(=O)C3=C(O)CC(C)(C)CC3=O)nc3ccccc32)cc1 [II-64] | 5 | 5 | 4 | 5 | 5 | 5 | 5 | 4
14 | CCOc1cccc(-n2c(=O)c(C(=O)C3=C(O)CCCC3=O)nc3ccccc32)c1 [II-68] | 5 | 5 | 5 | 5 | 5 | 5 | 5 | 5
15 | CCOc1ccc(-n2c(=O)c(C(=O)C3=C(O)CCCC3=O)nc3ccccc32)cc1 [II-69] | 5 | 5 | 5 | 5 | 5 | 5 | 5 | 4
16 | CC(C)Oc1ccc(-n2c(=O)c(C(=O)C3=C(O)CCCC3=O)nc3ccccc32)cc1 [II-75] | 5 | 5 | 5 | 5 | 5 | 4 | 5 | 4
17 | O=C1CCCC(O)=C1C(=O)c1nc2ccccc2n(-c2cccc(OC(F)F)c2)c1=O [II-90] | 5 | 5 | 5 | 5 | 5 | 5 | 5 | 5
18 | O=C1CCCC(O)=C1C(=O)c1nc2ccccc2n(-c2ccc(OC(F)F)cc2)c1=O [II-95] | 5 | 5 | 5 | 5 | 5 | 5 | 5 | 5

Reference: patent publication US8389523B2, “Substituted quinoxaline and an agrochemical composition thereof” (Kumiai Chemical Industry Co., Ltd., priority 2007, dated 2013)
